From patent US9187497B2, “Substituted pyrido[3,2-e]pyrrolo[1,2-a]pyrazines as inhibitors of poly(ADP-ribose)polymerase (PARP)” (Takeda Phamaceutical Company Limited, priority 2009, dated 2015) come the findings set out here.

The structures appear in SMILES notation. Bounds are passed on as bounds.

In test [1] the target is T1, catalytic domain of Human PARP (Homo sapiens, UniProt P09874).
T1 construct: The catalytic domain of Human PARP was cloned and prepared; made in house
The experiment in a line: Biacore surface plasmon resonance affinity assay (dissociation constant KD). It is filed as binding. The note with it: pKD=-log(KD), KD in molar concentration; Biacore T100, 25° C. How it is done:
Dissociation Constant (KD) from Surface Plasmon Resonance
The catalytic domain of Human PARP was cloned and prepared as described in Kinoshita, T.; Nakanishi, I.; Warizaya, M.; Iwashita, A.; Kido, Y.; Hattori, K. and Fujii, T. 2006 FEBS Letters 556, 43-46. Purified enzyme was stored at −80° C. in 25 mM Tris(hydroxymethyl)aminomethane (Tris) pH 7.4, 150 mM NaCl, 2 mM dithiothreitol (DTT) at a concentration of 6 mg/ml.
Biacore affinity assays for test compounds were conducted on a Biacore T100 (GE Healthcare) as follows. A Series S Sensor Chip CM5 (part number BR-1006-68, GE Healthcare) was activated for amide coupling with an Amine Coupling Kit (part number BR-1000-50, GE Healthcare) as described by the manufacturer. The mobile phase buffer consisted of Biacore buffer HBS-P (part number BR-1003-68, GE Healthcare) supplemented with 1% v/v dimethylsulfoxide (DMSO), 0.5 mM Tris(2-carboxyethyl)phosphine hydrochloride (TCEP), and 5 mM MgCl2. Enzyme samples (2 μl/6 mg/ml) stored at −80° C. were diluted to 0.080 mg/ml with 10 mM 4-morpholineethanesulfonic acid (MES) pH 6.5 and then mounted on the activated Biacore CM5 chip at a flow rate of 10 μl/min for 240 seconds. When successfully mounted, a signal of approximately 8,000 reflective units was observed. Test compounds were diluted 9 times 2-fold serially in mobile phase buffer (listed above) at 1% v/v DMSO final to generate a concentration gradient bracketing their anticipated KDs. Biacore mounted PARP was given a 1 minute exposure (association phase) to various concentrations of test compounds to observe a steady state equilibrium or an on rate. The exposure was followed with a dissociation phase of 5 minutes. The association and dissociation phases were at a flow rate of 50 μl/min and a temperature of 25° C.
Parameters Rmax (response at saturation) and KD (binding constant) were calculated through a nonlinear least squares fitting of the equation to the data by use of the Biacore T100 analysis software.
Parameter optimization was through a nonlinear least squares analysis of the association phase Response=Rmax*(1−exp(−(kon[cmpd]+koff)*t)) and dissociation phase Response=[…] by use of the Biacore T100 analysis software. The binding constant KD was calculated from the definition KD=koff/kon

For the next test, the target named is T2, PARP (Homo sapiens, UniProt P09874).
T2 construct: purchased Trevigen 4684-096-01 (enzyme); kit 4684-096-K HT
T2 sequence (P09874 whole entry): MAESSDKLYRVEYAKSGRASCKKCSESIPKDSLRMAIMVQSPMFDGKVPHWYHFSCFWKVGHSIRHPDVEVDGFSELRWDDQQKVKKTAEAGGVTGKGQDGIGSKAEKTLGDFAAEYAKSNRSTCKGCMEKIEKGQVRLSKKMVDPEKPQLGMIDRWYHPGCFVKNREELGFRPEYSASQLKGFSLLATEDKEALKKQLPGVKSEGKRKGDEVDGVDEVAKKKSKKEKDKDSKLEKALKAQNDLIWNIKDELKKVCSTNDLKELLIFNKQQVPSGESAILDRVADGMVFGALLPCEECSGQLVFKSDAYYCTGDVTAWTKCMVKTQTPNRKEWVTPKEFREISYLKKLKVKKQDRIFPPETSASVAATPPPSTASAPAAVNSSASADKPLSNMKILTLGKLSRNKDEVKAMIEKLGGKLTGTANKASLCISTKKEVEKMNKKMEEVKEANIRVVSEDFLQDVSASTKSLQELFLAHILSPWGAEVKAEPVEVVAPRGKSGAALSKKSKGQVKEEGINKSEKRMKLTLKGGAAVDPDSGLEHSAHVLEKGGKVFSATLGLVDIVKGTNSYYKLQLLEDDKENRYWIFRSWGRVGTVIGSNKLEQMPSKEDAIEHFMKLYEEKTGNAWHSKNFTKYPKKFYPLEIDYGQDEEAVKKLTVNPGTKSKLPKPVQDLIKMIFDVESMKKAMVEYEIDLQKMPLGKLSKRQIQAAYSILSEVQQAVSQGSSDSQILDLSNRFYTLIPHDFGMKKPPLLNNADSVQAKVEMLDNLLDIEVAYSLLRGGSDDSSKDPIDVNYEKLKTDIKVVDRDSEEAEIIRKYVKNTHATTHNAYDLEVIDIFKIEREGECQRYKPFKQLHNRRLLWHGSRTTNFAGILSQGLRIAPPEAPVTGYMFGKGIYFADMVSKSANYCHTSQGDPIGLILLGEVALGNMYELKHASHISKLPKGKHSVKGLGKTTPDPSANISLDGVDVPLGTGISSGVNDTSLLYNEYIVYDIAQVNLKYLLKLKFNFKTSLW
Kind of test: PARP ELISA colorimetric assay of inhibition of PARP catalytic activity (IC50). It is filed as biochemical. The note with it: pIC50=-log(IC50), IC50 in molar concentration; ELISA-based PARP kit, 10 minutes of catalysis. Put shortly: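 Human PARP was added as a 0.1 nM solution to histone-coated wells with compound for a 10-min ambient preincubation. The reaction was started with 100 μM NAD+ solution plus activated DNA and run 10 min. PAR formation was detected by anti-PAR ELISA, colorimetric. IC50 came from a 12-point, 3-fold gradient fitted by nonlinear least squares to a Hill equation.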
A general note: An ELISA detects its analyte on a solid surface through an enzyme-linked reagent.

The next test relates to Jurkat cell line. The experiment in a line: PARP cellular chemopotentiation assay (MTS cell viability with and without TMZ). It is filed as cell-based. The note with it: ratio of EC50 for inhibition of cell viability without and with 100 μM TMZ; Jurkat cells, 96 hours of treatment. The method in brief:
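Jurkat cells, 10,000/well, pre-cultured 24 h, then treated 96 h with serial compound dilutions (0.5% DMSO) with or without 100 μM TMZ. Viability by MTS conversion (OD490), normalized to DMSO controls; EC50 from curve fits, PF50 = EC50 without TMZ / EC50 with TMZ.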

T1 sequence (P09874 788-1014 limits assumed): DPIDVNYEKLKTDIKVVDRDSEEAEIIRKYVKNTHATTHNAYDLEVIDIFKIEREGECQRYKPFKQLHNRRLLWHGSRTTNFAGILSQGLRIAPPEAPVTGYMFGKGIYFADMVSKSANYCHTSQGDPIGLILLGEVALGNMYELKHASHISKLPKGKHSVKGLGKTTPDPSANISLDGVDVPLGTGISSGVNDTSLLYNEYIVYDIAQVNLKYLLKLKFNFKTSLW

Broadly, the Kd is the constant that tells how readily two partners part at equilibrium. A higher Kd goes with a looser complex. Broadly, the IC50 is the point on the concentration scale where inhibition reaches its midpoint. In test [1], `CN1CC(=O)Nc2cc(CN3CCN(c4ccc(Cl)cc4)CC3)cnc21` [Compound 81, 7-((4-(4-chlorophenyl)piperazin-1-yl)methyl)-4-methyl-3,4-dihydropyrido[2,3-b]pyrazin-2(1H)-one] had a Kd of 31.6 to 794 nM. For the same molecule, the IC50 against PARP was at least 50.1 nM. The PF50 result in the test with Jurkat cell line was “≧0”.

Consider `C[C@H]1C(=O)Nc2cc(CN3CCN(c4cccc(Cl)c4)CC3)cnc2N1C` [Compound 58, (S)-7-((4-(3-chlorophenyl)piperazin-1-yl)methyl)-3,4-dimethyl-3,4-dihydropyrido[3,2-b]pyrazin-2(1H)-one], for which the Kd in test [1] was at least 1000 nM.

In test [1], `CCN1c2ncc(CN3CC=C(c4ccc(Cl)cc4)CC3)cc2NC(=O)[C@@H]1C` [Compound 63, (S)-7-((4-(4-chlorophenyl)-5,6-dihydropyridin-1(2H)-yl)methyl)-4-ethyl-3-methyl-3,4-dihydropyrido[3,2-b]pyrazin-2(1H)-one] showed an equilibrium dissociation constant (Kd) of 31.6 to 794 nM. In addition, the PF50 result in the test with Jurkat cell line is recorded as “≧0”.

`O=C1Nc2cc(CN3CCC(c4ccc(Cl)cc4)CC3)cnc2N2CCCCC12` (centres unmarked) [Compound 67, 3-((4-(4-chlorophenyl)piperidin-1-yl)methyl)-7,8,9,10-tetrahydro-5H-dipyrido[1,2-a:3′,2′-e]pyrazin-6(6aH)-one] had a Kd in test [1] below 31.6 nM. The molecule further had an IC50 on PARP of 15.8 to 39.8 nM. Besides, the PF50 entry with Jurkat cell line is listed as “≧0”.

In turn, `O=C1CN(Cc2ccccc2)c2ncc(CN3CC=C(c4ccc(Cl)cc4)CC3)cc2N1` [Compound 83, 4-benzyl-7-((4-(4-chlorophenyl)-5,6-dihydropyridin-1(2H)-yl)methyl)-3,4-dihydropyrido[2,3-b]pyrazin-2(1H)-one] gave a Kd in test [1] of at least 1000 nM. Moreover, the IC50 on PARP was 15.8 to 39.8 nM. Further, the PF50 result in the test on Jurkat cell line is listed as “≧0”.

`C[C@H]1C(=O)Nc2cc(CN3CC=C(c4ccc(Cl)cc4)CC3)cnc2N1C` [Compound 52, (S)-7-((4-(4-chlorophenyl)-5,6-dihydropyridin-1(2H)-yl)methyl)-3,4-dimethyl-3,4-dihydropyrido[3,2-b]pyrazin-2(1H)-one] showed a Kd in test [1] below 31.6 nM. In addition, the PF50 entry with Jurkat cell line is “≧0”.

Consider `CN1CC(=O)Nc2cc(CN3CCC(c4ccc(Cl)cc4)CC3)cnc21` [Compound 82, 7-((4-(4-chlorophenyl)piperidin-1-yl)methyl)-4-methyl-3,4-dihydropyrido[2,3-b]pyrazin-2(1H)-one], for which, in test [1], the Kd is 31.6 to 794 nM. Also, the IC50 against PARP was at least 50.1 nM. Besides, the PF50 entry in the test on Jurkat cell line is recorded as “≧0”.

Regarding `CC(C)N1c2ncc(CN3CCN(c4ccc(Cl)cc4)CC3)cc2NC(=O)[C@@H]1C` [Compound 61, (S)-7-((4-(4-chlorophenyl)piperazin-1-yl)methyl)-4-isopropyl-3-methyl-3,4-dihydropyrido[3,2-b]pyrazin-2(1H)-one], in test [1], the Kd was at least 1000 nM.

On to `CC(C)N1c2ncc(CN3CC=C(c4ccc(Cl)cc4)CC3)cc2NC(=O)[C@@H]1C` [Compound 60, (S)-7-((4-(4-chlorophenyl)-5,6-dihydropyridin-1(2H)-yl)methyl)-4-isopropyl-3-methyl-3,4-dihydropyrido[3,2-b]pyrazin-2(1H)-one], for which the equilibrium dissociation constant (Kd) in test [1] is at least 1000 nM.

Regarding `C[C@H]1C(=O)Nc2cc(CN3CCN(c4ccc(Cl)cc4)CC3)cnc2N1C` [Compound 59, (S)-7-((4-(4-chlorophenyl)piperazin-1-yl)methyl)-3,4-dimethyl-3,4-dihydropyrido[3,2-b]pyrazin-2(1H)-one], the Kd in test [1] was below 31.6 nM. Further, in the test with Jurkat cell line, the PF50 entry was “≧0”.

In the case of `C[C@H]1C(=O)Nc2cc(CN3CC=C(c4ccccc4)CC3)cnc2N1C` [Compound 57, (S)-3,4-dimethyl-7-((4-phenyl-5,6-dihydropyridin-1(2H)-yl)methyl)-3,4-dihydropyrido[3,2-b]pyrazin-2(1H)-one], in test [1], the Kd is below 31.6 nM. The PF50 result with Jurkat cell line is “≧0”.

In test [1], `C[C@H]1C(=O)Nc2cc(CN3CC=C(c4ccc(F)cc4)CC3)cnc2N1C` [Compound 56, (S)-7-((4-(4-fluorophenyl)-5,6-dihydropyridin-1(2H)-yl)methyl)-3,4-dimethyl-3,4-dihydropyrido[3,2-b]pyrazin-2(1H)-one] showed a Kd below 31.6 nM. Further, the PF50 entry in the test on Jurkat cell line is listed as “≧0”.

As to `O=C1Nc2cc(CN3CCC(c4ccc(Cl)cc4)CC3)cnc2N2CCC[C@@H]12` [Compound 3, (S)-3-((4-(4-chlorophenyl)piperidin-1-yl)methyl)-6a,7,8,9-tetrahydropyrido[3,2-e]pyrrolo[1,2-a]pyrazin-6(5H)-one], in test [1], the equilibrium dissociation constant (Kd) is 31.6 to 794 nM. For the same molecule, the PF50 with Jurkat cell line is listed as above 10.

Consider `O=C(NC1CC1)c1ccc(N2CCN(Cc3cnc4c(c3)NC(=O)[C@@H]3CCCCN43)CC2)c(F)c1` [Compound 116, (S)—N-cyclopropyl-3-fluoro-4-(4-((6-oxo-6,6a,7,8,9,10-hexahydro-5H-dipyrido[1,2-a:3′,2′-e]pyrazin-3-yl)methyl)piperazin-1-yl)benzamide], for which, on PARP, the IC50 is at most 12.6 nM. Moreover, the PF50 with Jurkat cell line is on record as above 5000.

For `CCNC(=O)c1ccc(N2CCN(Cc3cnc4c(c3)NC(=O)[C@@H]3CCCCN43)CC2)c(Cl)c1` [Compound 110, (S)-3-chloro-N-ethyl-4-(4-((6-oxo-6,6a,7,8,9,10-hexahydro-5H-dipyrido[1,2-a:3′,2′-e]pyrazin-3-yl)methyl)piperazin-1-yl)benzamide], the 50% inhibitory concentration (IC50) against PARP was 15.8 to 39.8 nM. Further, the PF50 with Jurkat cell line is on record as above 5000.

For the molecule `N#Cc1ccc(N2CCN(Cc3cnc4c(c3)NC(=O)[C@@H]3CCN43)CC2)cc1` [Compound 102, (S)-4-(4-((6-oxo-6,6a,7,8-tetrahydro-5H-azeto[1,2-a]pyrido[3,2-e]pyrazin-3-yl)methyl)piperazin-1-yl)benzonitrile], at PARP, the IC50 was 15.8 to 39.8 nM. The PF50 entry in the test with Jurkat cell line was “≧0”.

In turn, `O=C(NC1CC1)c1ccc(N2CCN(Cc3cnc4c(c3)NC(=O)[C@@H]3CCCN43)CC2)c(F)c1` [Compound 132, (S)—N-cyclopropyl-3-fluoro-4-(4-((6-oxo-5,6,6a,7,8,9-hexahydropyrido[3,2-e]pyrrolo[1,2-a]pyrazin-3-yl)methyl)piperazin-1-yl)benzamide] showed an IC50 on PARP of at most 12.6 nM. For the same molecule, the PF50 with Jurkat cell line was above 2000.

As for `CCNC(=O)c1ccc(N2CCN(Cc3cnc4c(c3)NC(=O)[C@@H]3CCCN43)CC2)c(C)c1` [Compound 137, (S)—N-ethyl-3-methyl-4-(4-((6-oxo-5,6,6a,7,8,9-hexahydropyrido[3,2-e]pyrrolo[1,2-a]pyrazin-3-yl)methyl)piperazin-1-yl)benzamide], the 50% inhibitory concentration (IC50) against PARP is at most 12.6 nM. For the same molecule, in the test with Jurkat cell line, the PF50 is above 5000.

In test [1], `C[C@H]1C(=O)Nc2cc(CN3CCC(c4ccccc4)CC3)cnc2N1C` [Compound 54, (S)-3,4-dimethyl-7-((4-phenylpiperidin-1-yl)methyl)-3,4-dihydropyrido[3,2-b]pyrazin-2(1H)-one] had a Kd of at least 1000 nM.

Take `Cc1cc(C(=O)NC2CC2)ccc1N1CCN(Cc2cnc3c(c2)NC(=O)[C@@H]2CCCCN32)CC1` [Compound 115, (S)—N-cyclopropyl-3-methyl-4-(4-((6-oxo-6,6a,7,8,9,10-hexahydro-5H-dipyrido[1,2-a:3′,2′-e]pyrazin-3-yl)methyl)piperazin-1-yl)benzamide]: at PARP, the IC50 is 15.8 to 39.8 nM. The PF50 with Jurkat cell line is given as above 2000.

Take `N#Cc1ccc(N2CCN(Cc3cnc4c(c3)NC(=O)CC3CCCN43)CC2)cc1` (centres unmarked) [Compound 103, 4-(4-((6-oxo-6,7,7a,8,9,10-hexahydro-5H-pyrido[3,2-b]pyrrolo[1,2-d][1,4]diazepin-3-yl)methyl)piperazin-1-yl)benzonitrile]: on PARP, the half-inhibitory concentration (IC50) was 15.8 to 39.8 nM. Also, the PF50 result with Jurkat cell line is recorded as “≧0”.

With `CC(C)NC(=O)c1ccc(N2CCN(Cc3cnc4c(c3)NC(=O)[C@@H]3CCCN43)CC2)cc1` [Compound 12, (S)—N-isopropyl-4-(4-((6-oxo-5,6,6a,7,8,9-hexahydropyrido[3,2-e]pyrrolo[1,2-a]pyrazin-3-yl)methyl)piperazin-1-yl)benzamide], at PARP, the IC50 is 15.8 to 39.8 nM. For the same molecule, the PF50 in the test with Jurkat cell line is above 10.
